Read-outs that look alike come from different tables or passages of the source.
What was measured:
[1] = system: ovarian cancer cells (PA-1); test: Cancer cell line growth inhibition (SRB assay); assay type: cell-based; conditions: read-out: Cancer Cell Line GI50 Range PA-1
[2] = system: colon cancer cells (HCT116); test: Cancer cell line growth inhibition (SRB assay); assay type: cell-based; conditions: read-out: Cancer Cell Line GI50 Range HCT116
[3] = target: T1, human TTK (Homo sapiens, UniProt P33981); test: TTK inhibition assay (indirect ELISA); assay type: biochemical; conditions: read-out: TTK IC50 Range
T1 construct: amino terminal GST fusion of full length human TTK; purchased Invitrogen
T1 sequence (P33981 1-857): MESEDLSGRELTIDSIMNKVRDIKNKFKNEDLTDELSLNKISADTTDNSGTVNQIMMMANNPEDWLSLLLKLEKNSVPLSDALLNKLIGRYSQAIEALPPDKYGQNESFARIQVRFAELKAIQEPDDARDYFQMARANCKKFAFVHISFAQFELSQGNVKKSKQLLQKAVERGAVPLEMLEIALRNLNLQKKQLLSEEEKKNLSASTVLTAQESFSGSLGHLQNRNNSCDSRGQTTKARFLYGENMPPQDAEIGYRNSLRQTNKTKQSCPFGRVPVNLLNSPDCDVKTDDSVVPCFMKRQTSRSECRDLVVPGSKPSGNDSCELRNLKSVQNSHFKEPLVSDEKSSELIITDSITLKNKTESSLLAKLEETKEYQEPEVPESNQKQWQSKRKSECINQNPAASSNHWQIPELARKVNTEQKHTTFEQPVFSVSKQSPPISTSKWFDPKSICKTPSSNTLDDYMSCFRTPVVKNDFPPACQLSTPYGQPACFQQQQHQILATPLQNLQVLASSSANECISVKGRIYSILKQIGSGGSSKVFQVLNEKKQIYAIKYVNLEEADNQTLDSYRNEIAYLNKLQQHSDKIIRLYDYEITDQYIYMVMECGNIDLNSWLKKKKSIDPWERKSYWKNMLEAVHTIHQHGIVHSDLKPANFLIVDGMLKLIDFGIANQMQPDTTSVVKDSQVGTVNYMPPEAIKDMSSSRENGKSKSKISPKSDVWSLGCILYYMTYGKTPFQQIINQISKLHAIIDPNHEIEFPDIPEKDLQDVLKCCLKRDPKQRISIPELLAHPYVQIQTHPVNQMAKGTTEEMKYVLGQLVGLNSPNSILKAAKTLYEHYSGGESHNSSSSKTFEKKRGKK

[4] = PA-1 ovarian cancer cells, SRB assay
[5] = Homo sapiens, HCT-116, HCT116 colon cancer cells, SRB assay

SMILES | GI50 ([1]; Homo sapiens, PA-1) [nM] | GI50 ([2]; Homo sapiens, HCT-116) [nM] | IC50 [3] [nM] | GI50 [1, 4] [nM] | GI50 [2, 5] [nM] | GI50 ([1]; PA-1) [nM] | GI50 ([2]; HCT116) [nM]
CC(C)(O)C(=O)N1CCC(Oc2ccc(-c3n[nH]c4ccc(C(=O)N[C@H](c5ccccc5)C5CC5)cc34)cc2)CC1 [Example A381, (S)-N-(cyclopropyl(phenyl)methyl)-3-(4-((1-(2-hydroxy-2-methylpropanoyl)piperidin-4-yl)oxy)phenyl)-1H-indazole-5-carboxamide] | 100 to 500 | 100 to 500 | < 100 | – | – | – | –
O=C(N[C@H](c1ccccc1)C1CC1)c1ccc2[nH]nc(-c3ccc(OC4CCN(C(=O)CO)CC4)cc3)c2c1 [Example A382, (S)-N-(cyclopropyl(phenyl)methyl)-3-(4-((1-(2-hydroxyacetyl)piperidin-4-yl)oxy)phenyl)-1H-indazole-5-carboxamide] | < 100 | < 100 | < 100 | – | – | – | –
O=C(NC(c1ccccn1)C1CC1)c1ccc2[nH]nc(-c3ccc(N4CCOCC4)cc3)c2c1 (stereo not drawn) [Example A383, N-(cyclopropyl(pyridin-2-yl)methyl)-3-(4-morpholinophenyl)-1H-indazole-5-carboxamide] | 100 to 500 | 100 to 500 | < 100 | – | – | – | –
O=C(NC(c1ccccn1)C1CC1)c1ccc2[nH]nc(-c3ccc(N4CCN(CCO)CC4)cc3)c2c1 (stereo not drawn) [Example A384, N-(cyclopropyl(pyridin-2-yl)methyl)-3-(4-(4-(2-hydroxyethyl)piperazin-1-yl)phenyl)-1H-indazole-5-carboxamide] | 100 to 500 | 100 to 500 | < 100 | – | – | – | –
CN1C2COCC1CC(Oc1ccc(-c3n[nH]c4ccc(C(=O)N[C@H](c5ccccn5)C5CC5)cc34)cc1)C2 (stereo partly drawn) [Example A389, N-((S)-cyclopropyl(pyridin-2-yl)methyl)-3-(4-(((1R,5S,7s)-9-methyl-3-oxa-9-azabicyclo[3.3.1]nonan-7-yl)oxy)phenyl)-1H-indazole-5-carboxamide] | < 100 | < 100 | < 100 | – | – | – | –
CN1C2COCC1CC(Oc1ccc(-c3n[nH]c4ccc(C(=O)NC(c5ccccn5)C5CCCC5)cc34)cc1)C2 [Example A392, N-(cyclopentyl (pyridin-2-yl)methyl)-3-(4-(((1R,5S,7s)-9-methyl-3-oxa-9-azabicyclo [3.3.1]nonan-7-yl)oxy)phenyl)-1H-indazole-5-carboxamide] | < 100 | < 100 | < 100 | – | – | – | –
CC(C)C(NC(=O)c1ccc2[nH]nc(-c3ccc(OC4CC5COCC(C4)N5C)cc3)c2c1)c1ccccc1Cl [Example A393, N-(1-(2-chlorophenyl)-2-mcthylpropyl)-3-(4-(((1R,5S,7s)-9-methy]-3-oxa-9-azabicyclo[3.3.1]nonan-7-yl)oxy)phenyl)-1H-indazole-5-carboxamide] | < 100 | < 100 | < 100 | – | – | – | –
CC(C)C(NC(=O)c1ccc2[nH]nc(-c3ccc(OC4CC5CCC(C4)N5C)cc3)c2c1)c1ccccn1 (stereo not drawn) [Example A396, N-(2-methyl-1-(pyridin-2-yl)propyl)-3-(4-((8-methyl-8-azabicyclo [3.2.1]octan-3-yl)oxy)phenyl)-1H-indazole-5-carboxamide] | – | – | < 100 | – | – | < 100 | < 100
CN1C2CCC1CC(Oc1ccc(-c3n[nH]c4ccc(C(=O)N[C@H](c5ccccn5)C5CC5)cc34)cc1)C2 (stereo partly drawn) [Example A397, N-((S)-cyclopropyl(pyridin-2-yl)methyl)-3-(4-((8-methyl-8-azabicyclo[3.2.1]octan-3-yl)oxy)phenyl)-1H-indazole-5-carboxamide] | < 100 | < 100 | < 100 | – | – | – | –
O=C(N[C@H](c1ccccc1)C1CC1)c1ccc2[nH]nc(-c3ccc(N4CCN(C5COC5)CC4)cc3)c2c1 [Example A399, (S)-N-(cyclopropyl(phenyl)methyl)-3-(4-(4-(oxetan-3-yl)piperazin-1-yl)phenyl)-1H-indazole-5-carboxamide] | 100 to 500 | < 100 | < 100 | – | – | – | –
O=C(N[C@H](c1ccccn1)C1CC1)c1ccc2[nH]nc(-c3ccc(N4CCN(C5COC5)CC4)cc3)c2c1 [Example A401, (S)-N-(cyclopropyl(pyridin-2-yl)methyl)-3-(4-(4-(oxetan-3-yl)piperazin-1-yl)phenyl)-1H-indazole-5-carboxamide] | < 100 | < 100 | < 100 | – | – | – | –
CCC(CNC(=O)c1ccc2[nH]nc(-c3ccc(N4CCOCC4)cc3)c2c1)c1ccccc1 (stereo not drawn) [Example A407, 3-(4-morpholinophenyl)-N-(2-phenylbutyl)-1H-indazole-5-carboxamide] | > 500 | > 500 | < 100 | – | – | – | –
O=C(NCC1(c2cccs2)CCOCC1)c1ccc2[nH]nc(-c3ccc(N4CCOCC4)cc3)c2c1 [Example A436, 3-(4-morpholinophenyl)-N-((4-(thiophen-2-yl)tetrahydro-2H-pyran-4-yl)methyl)-1H-indazole-5-carboxamide] | 100 to 500 | 100 to 500 | < 100 | – | – | – | –
CCC(CC)(CNC(=O)c1ccc2[nH]nc(-c3ccc(N4CCOCC4)cc3)c2c1)c1ccccc1 [Example A437, N-(2-ethyl-2-phenylbutyl)-3-(4-morpholinophenyl)-1H-indazole-5-carboxamide] | 100 to 500 | 100 to 500 | < 100 | – | – | – | –

Now from value to molecule, other results behind:

GI50 ([1]; Homo sapiens, PA-1) [nM] | GI50 ([2]; Homo sapiens, HCT-116) [nM] | IC50 [3] [nM] | GI50 [1, 4] [nM] | GI50 [2, 5] [nM] | SMILES | GI50 ([1]; PA-1) [nM] | GI50 ([2]; HCT116) [nM]
– | – | < 100 | < 100 | < 100 | O=C(NCC1(N2CCOCC2)CCCCC1)c1ccc2[nH]nc(-c3ccc(N4CCC(O)CC4)cc3)c2c1 [Example A427, 3-(4-(4-hydroxypiperidin-1-yl)phenyl)-N-((1-morpholinocyclohexyl)methyl)-1H-indazole-5-carboxamide] | – | –
– | – | < 100 | 100 to 500 | 100 to 500 | CN1CCC(Oc2ccc(-c3n[nH]c4ccc(C(=O)NCC5(N6CCOCC6)CCCC5)cc34)cc2)CC1 [Example A428, 3-(4-((1-methylpiperidin-4-yl)oxy)phenyl)-N-((1-morpholinocyclopentyl)methyl)-1H-indazole-5-carboxamide] | – | –
– | – | < 100 | 100 to 500 | < 100 | CN1CCC(Oc2ccc(-c3n[nH]c4ccc(C(=O)NCC5(N6CCOCC6)CCCCCC5)cc34)cc2)CC1 [Example A429, 3-(4-((1-methylpiperidin-4-yl)oxy)phenyl)-N-((1-morpholinocycloheptyl)methyl)-1H-indazole-5-carboxamide] | – | –
– | – | < 100 | 100 to 500 | 100 to 500 | CN1CCC(Oc2ccc(-c3n[nH]c4ccc(C(=O)NCC5(c6ccccc6)CC5(C)C)cc34)cc2)CC1 (stereo not drawn) [Example A431, N-((2,2-dimethyl-1-phenylcyclopropyl)methyl)-3-(4-((1-methylpiperidin-4-yl)oxy)phenyl)-1H-indazole-5-carboxamide] | – | –
< 100 | < 100 | < 100 | – | – | O=C(NCC1(N2CCOCC2)CCCCC1)c1ccc2[nH]nc(-c3ccc(OC4CCN(CCO)CC4)cc3)c2c1 [Example A432, 3-(4-((1-(2-hydroxyethyl)piperidin-4-yl)oxy)phenyl)-N-((1-morpholinocyclohexyl)methyl)-1H-indazole-5-carboxamide] | – | –
100 to 500 | 100 to 500 | < 100 | – | – | O=C(NCC1(c2cccs2)CCOCC1)c1ccc2[nH]nc(-c3ccc(OC4CCN(C5COC5)CC4)cc3)c2c1 [Example A433, 3-(4-((1-(oxetan-3-yl)piperidin-4-yl)oxy)phenyl)-N-((4-(thiophen-2-yl)tetrahydro-2H-pyran-4-yl)methyl)-1H-indazole-5-carboxamide] | – | –
> 500 | > 500 | < 100 | – | – | O=C(NCC1(OC2CCCC2)CCCCC1)c1ccc2[nH]nc(-c3ccc(N4CCOCC4)cc3)c2c1 [Example A435, N-((1-(cyclopentyloxy)cyclohexyl)methyl)-3-(4-morpholinophenyl)-1H-indazole-5-carboxamide] | – | –
– | – | < 100 | 100 to 500 | 100 to 500 | C[C@@H]1CN(c2ccc(-c3n[nH]c4ccc(C(=O)NCC5(N6CCOCC6)CCCCC5)cc34)cc2)C[C@H](C)O1 [Example A454, 3-(4-((2S,6R)-2,6-dimethylmorpholino)phenyl)-N-((1-morpholinocyclohexyl)methyl)-1H-indazole-5-carboxamide] | – | –
– | – | < 100 | 100 to 500 | 100 to 500 | CN1CCC(Oc2ccc(-c3n[nH]c4ccc(C(=O)NCC5(N6CCOCC6)CCC(F)(F)CC5)cc34)cc2)CC1 [Example A458, N-((4,4-difluoro-1-morpholinocyclohexyl)methyl)-3-(4-((1-methylpiperidin-4-yl)oxy)phenyl)-1H-indazole-5-carboxamide] | – | –
